Consider three compounds from US20250353860A1, “PIPERIDINE CARBOXAMIDE AZAINDANE DERIVATIVE, METHOD FOR PREPARING SAME, AND USE THEREOF” (BRISE PHARMACEUTICALS CO., LTD., priority 2022, published 2025).

The structures appear in SMILES notation.

The target in one data set is CGRP receptor (Homo sapiens, UniProt O60894+Q16602). As to the kind of experiment: Inhibition of CGRP signaling pathway (cAMP, HTRF) in SK-N-MC cells. Format: cell-based. Conditions: [α-CGRP]=10 ng/mL; increase in cAMP levels; read-out: IC50 of the inhibitory effect on the CGRP signaling pathway in SK-N-MC cells. Details: SK-N-MC (ATCC, HTB-10) cells endogenously expressing CGRP receptor; host or cells: SK-N-MC. The method, then: The inhibitory effect of the CGRP signaling pathway in vitro is evaluated by measuring the cAMP level. The principle is that after CGRP binds to the CGRP receptor, the CGRP signaling pathway is activated, inducing an increase in the cAMP level. […] The specific experimental method is as follows:
cAMP was determined using the CAMP-GS DYNAMIC KIT detection kit (Cisbio, 62AM4PEB).
SK-N-MC (ATCC, HTB-10) cells endogenously expressing CGRP receptor were cultured in EMEM+10% FBS medium and the cells were collected during the logarithmic growth phase. According to the instructions of the kit, the cells were resuspended in Stimulation Buffer comprising 0.5 mM IBMX, and 5 μL of the cell suspension was added to each well of a 96-well microplate (Cisbio, 66PL96025) at a cell density of 15,000 cells/well, 2.5 μL of gradient diluted compound solution was added to each well. After incubation at 37° C. for 30 minutes, 2.5 μL of 40 ng/ml human α-CGRP (Bachem, H-1470.0500) diluted in Stimulation Buffer comprising 0.5 mM IBMX was added to each well to a final concentration of 10 ng/ml. After incubation at 37° C. for 30 minutes, 5 μL of Anti-cAMP-Cryptate solution and 5 μL of cAMP-d2 solution were added to each well. After incubation at room temperature for 60 minutes, the HTRF signal was read using a microplate reader (Molecular Devices). Graphpad Prism was used to calculate the IC50 value of the compound's inhibitory effect on the increase in cAMP levels based on the compound concentration and HTRF signal.
For orientation: TR-FRET usually uses a lanthanide donor and a delayed reading to cut background.

Data set [1] is described as follows: Pharmacokinetics in Cynomolgus monkeys by oral gavage. Format: in vivo. Conditions: for AUC / half-life / Cmax: male, cynomolgus monkey, plasma, PO 2 mg/kg; for half-life: read-out: Half-life T½ (converted); for Cmax: read-out: Plasma concentration Cmax; for Pharmacokinetic properties compared with Atogepant: conclusion in words. Here is the method: The compounds of the present application were administered by gavage to cynomolgus monkeys as test animals, and the drug concentrations in plasma at different times were determined by LC/MS/MS to study the pharmacokinetic characteristics of the compounds of the present application […].
• Positive control compound Atogepant, Example 1A and Example 3A of the present application; • Six healthy adult male Cynomolgus monkeys, Kangshun Biotechnology Co., Ltd.
An appropriate amount of the compound to be tested was weighed, added with 100% polyethylene glycol 400, and vortexed to dissolve the compound. After the preparation was completed, it would be a colorless and transparent solution with a concentration of 1 mg/mL.
Six healthy adult male cynomolgus monkeys were fasted overnight and fed 4 hours after drug administration.
About 0.2 mL of blood was collected from the jugular vein before administration and 0.25 hours, 0.5 hours, 1 hour, 2 hours, 4 hours, 6 hours, 8 hours, 10 hours and 24 hours after administration, and anticoagulated with EDTA-K2. After blood samples were collected, they were placed in labeled ice-water bath centrifuge tubes and rapidly centrifuged to separate plasma. The centrifugation conditions were: 4000 rpm, 10 minutes, 4° C. The collected plasma was stored at below −40° C. for testing. The content of the test compound in the plasma of Cynomolgus monkeys after gavage of different compounds was determined by LC-MS/MS.

The subject of data set [2] is Cynomolgus monkey blood flow. Description: Capsaicin-induced Cynomolgus monkey blood flow model. Format: in vivo, Cynomolgus monkeys. Conditions: N = 3. The method, then:
In the capsaicin-induced Cynomolgus monkey blood flow model, the inhibitory effect of the compounds of the present application on cynomolgus monkey blood flow was evaluated.
In Example 1A and Example 3A, 100% polyethylene glycol 400 was used as the vehicle.
Experimental animals: male cynomolgus monkeys, with a body weight range of 3.2 kg to 5.80 kg during the administration period, purchased from Guangxi Xiongsen Primate Experimental Animal Breeding and Development Co., Ltd., production license: SCXK (Gui) 2016-0003; experimental animal quality certificate number: NO. 0002942.
Housing conditions: animals were kept in stainless steel cages by a single cage feeding method. The cage specifications are length×width×height=1 m×1 m×0.8 m. Before anesthesia with zoletil, the animals need to be fasted (but not water). The rest of the time, the animals were fed once in the morning and afternoon, about 100 g each time for one animal, supplemented with fresh fruits. The temperature of the animal room was set at 18-26° C., the humidity was 40-70%, and the lighting was alternating between light and dark for 12 hours.
After adaptive feeding, 10 cynomolgus monkeys were randomly selected, and the basal values were recorded using a moorFLPI-2 laser speckle blood flowmeter before capsaicin stimulation. After capsaicin stimulation, blood flow was tested again, and animals with an area under the time-blood flow rate curve (AUC)≥1000 (min·%) and small individual differences were selected to enter this experiment.
The blank vehicle control group was given 100% polyethylene glycol 400, and the drug administration group was given high and low doses of Example 1A and Example 3A (dissolved in 100% polyethylene glycol 400), respectively.
Note: Bolus is a large-dose push injection; Infusion is a small-dose continuous infusion.
Blood flow detection: all animals were given capsaicin once on the day of administration, and blood flow was detected at 0 min (before capsaicin administration), 5 min, 10 min, 15 min, 20 min and 30 min after capsaicin administration to monitor blood flow changes during this period. After the experiment ended that day, washout was carried out at intervals of 7-10 days, during which the experimental animals were rotated in turn. This type of experiment was repeated three times to obtain the average value of each group of data.
The blood flow change rate, AUC (area under the blood flow change rate-time curve) and blood flow inhibition rate were calculated using Excel.

Setting [3] is: 5 min after capsaicin, 0.3 μg/kg + 0.03 μg/kg/min.
The mark [4] stands for this setting: 5 min after capsaicin, 1 μg/kg + 0.1 μg/kg/min.
Where [5] appears, read: 10 min after capsaicin, 0.3 μg/kg + 0.03 μg/kg/min.
The mark [6] stands for this setting: 10 min after capsaicin, 1 μg/kg + 0.1 μg/kg/min.
The mark [7] stands for this setting: 15 min after capsaicin, 0.3 μg/kg + 0.03 μg/kg/min.
The mark [8] stands for this setting: 15 min after capsaicin, 1 μg/kg + 0.1 μg/kg/min.
[9] abbreviates: 20 min after capsaicin, 0.3 μg/kg + 0.03 μg/kg/min.
[10] abbreviates: 20 min after capsaicin, 1 μg/kg + 0.1 μg/kg/min.
[11] abbreviates: 30 min after capsaicin, 0.3 μg/kg + 0.03 μg/kg/min.
Where [12] appears, read: 30 min after capsaicin, 1 μg/kg + 0.1 μg/kg/min.

Chain of CGRP receptor (Q16602 23-461): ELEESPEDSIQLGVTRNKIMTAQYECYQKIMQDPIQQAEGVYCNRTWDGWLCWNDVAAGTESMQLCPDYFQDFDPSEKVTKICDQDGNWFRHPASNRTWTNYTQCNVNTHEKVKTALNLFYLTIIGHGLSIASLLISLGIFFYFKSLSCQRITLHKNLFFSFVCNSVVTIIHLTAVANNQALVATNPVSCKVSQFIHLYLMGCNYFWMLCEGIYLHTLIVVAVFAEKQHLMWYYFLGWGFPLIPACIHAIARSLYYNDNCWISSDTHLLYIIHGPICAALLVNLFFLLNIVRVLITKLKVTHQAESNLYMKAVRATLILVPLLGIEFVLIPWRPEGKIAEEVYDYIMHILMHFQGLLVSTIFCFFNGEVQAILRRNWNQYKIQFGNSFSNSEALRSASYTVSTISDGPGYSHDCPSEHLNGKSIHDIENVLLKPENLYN
Chain of CGRP receptor (O60894 27-148): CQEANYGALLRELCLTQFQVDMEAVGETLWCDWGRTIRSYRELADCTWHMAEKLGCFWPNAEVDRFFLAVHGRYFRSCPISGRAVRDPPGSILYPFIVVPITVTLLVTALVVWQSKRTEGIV

One may read the IC50 as the concentration that gives 50% inhibition. The term AUC denotes concentration integrated over time. A word on the half-life: it is the time needed for the level to fall by half in the phase considered. With `C[C@@H]1[C@H](c2c(F)ccc(F)c2F)C[C@H](NC(=O)c2cnc3c(c2)C[C@@]2(C3)C(=O)Nc3ncccc32)C(=O)N1CC(F)(F)F` [Atogepant, reference compound], at CGRP receptor, the IC50 was 0.12 nM. Besides, in data set [1], the AUC was 396 ± 42 ng·h/mL, the half-life was 1.5 ± 0.1 h and the Cmax amounted to 108 ± 18 ng/mL.
As to `C[C@@H]1[C@H](c2c(F)ccc(F)c2F)C[C@H](NC(=O)c2cc3c(s2)C[C@]2(C3)C(=O)Nc3ncccc32)C(=O)N1CC(F)(F)F` [Example 3A, (S)—N-((3S,5S,6R)-6-methyl-2-oxo-1-(2,2,2-trifluoroethyl)-5-(2,3,6-trifluorophenyl)piperidin-3-yl)-2′-oxo-1′,2′,4,6-tetrahydrospiro[cyclopenta[b]thiophene-5,3′-pyrrolo[2,3-b]pyridine]-2-carboxamide], the IC50 at CGRP receptor was found to be 0.68 nM. Further, the “AUC (area under the blood flow change rate-time curve)” value is 1481 %-min in data set [2] (0.3 μg/kg + 0.03 μg/kg/min) and 395 %-min in data set [2] (1 μg/kg + 0.1 μg/kg/min). The “Blood flow change rate” value stood at 69% in data set [2] (setting [3]); 27% in data set [2] (setting [4]); 71% in data set [2] (setting [5]); 35% in data set [2] (setting [6]); 69% in data set [2] (setting [7]); 25% in data set [2] (setting [8]). In addition, the “Blood flow change rate” value in data set [2] (setting [9]) is on record as 48%; in data set [2] (setting [10]), 3%; in data set [2] (setting [11]), 49%; in data set [2] (setting [12]), 1%. Further, in data set [1], the “Pharmacokinetic properties compared with Atogepant” value is listed as “good pharmacokinetic properties”. The AUC in data set [1] was 3590 ± 742 ng·h/mL. For the same compound, the half-life in data set [1] was 2.96 ± 0.3 h. Also, the Cmax in data set [1] came out at 778 ± 144 ng/mL.
`C[C@@H]1[C@H](c2c(F)ccc(F)c2F)C[C@H](NC(=O)c2cc3c(o2)CC[C@]2(C3)C(=O)Nc3ncccc32)C(=O)N1CC(F)(F)F` [Example 1A, (R)—N-((3S,5S,6R)-6-methyl-2-oxo-1-(2,2,2-trifluoroethyl)-5-(2,3,6-trifluorophenyl)piperidin-3-yl)-2′-oxo-1′,2′,6,7-tetrahydro-4H-spiro[benzofuran-5,3′-pyrrolo[2,3-b]pyridine]-2-carboxamide]: the IC50 at CGRP receptor is 0.18 nM. For the same compound, the “AUC (area under the blood flow change rate-time curve)” value in data set [2] (0.3 μg/kg + 0.03 μg/kg/min) is 454 %-min; in data set [2] (1 μg/kg + 0.1 μg/kg/min) it was 198 %-min. Further, the “Blood flow change rate” value amounted to 26% in data set [2] (setting [3]); 12% in data set [2] (setting [4]); 37% in data set [2] (setting [5]); 21% in data set [2] (setting [6]); 26% in data set [2] (setting [7]); 5% in data set [2] (setting [8]). The “Blood flow change rate” value is recorded as 12% in data set [2] (setting [9]), 9% in data set [2] (setting [10]), −4% in data set [2] (setting [11]) and −6% in data set [2] (setting [12]). In addition, the “Pharmacokinetic properties compared with Atogepant” value in data set [1] is reported as “good pharmacokinetic properties”. The compound further had an AUC in data set [1] of 1840 ± 1190 ng·h/mL. For the same compound, the half-life in data set [1] was 3.77 ± 0.2 h. Moreover, the Cmax in data set [1] was 294 ± 166 ng/mL.
